From PMC7822874, “Chemoprotective antimalarials identified through quantitative high-throughput screening of Plasmodium blood and liver stage parasites” (Scientific Reports, 2021)
Where two headings read alike, the source gives them in different places.

What was measured:
[1] = test system: P. falciparum Dd2 Cytb G131S; assay: SYBR Green ABS proliferation assay, NCGC00374598 selected clone C11; type: cell-based, Plasmodium falciparum; conditions: Plasmodium falciparum
Procedure: (§1) As resistance selection studies implicated the parasite cytochrome bc1 complex in mediating reduced parasite susceptibility to both NCGC00473217 and NCGC00374598, we leveraged these drug-selected parasites to test for altered drug response to a panel of antimalarial compounds.
(§2) The P. falciparum parasite Dd2 line was cultured in vitro using standard conditions. […] Tissue culture flasks and assay plates were incubated at 37 °C under a gas mixture of 5% CO2, 5% O2 and 90% N2. […] Significant differences were assessed using two-sided Student’s t-tests. All HTS assays were stopped and read at 72 h. Percent response values represent relative growth as judged by SYBR Green-I fluorescence intensity values normalized to controls.
(§3) Fresh uninfected RBCs (0.5% hematocrit) were added on day 7 and media was changed every other day. […] Resistant parasites were maintained under drug media at a volume of 50 mL until a high parasitemia (> 5%) was achieved. Aliquots of the bulk resistant cultures were frozen in cryovials before cloning by limiting dilution in 96-well plates (seeded at 0.25 or 0.5 parasites/well)[70]. After 3 weeks of cloning, we screened for positive wells by flow cytometry with SYBR Green-stained cells. […] Parasites were harvested by saponin lysis at the trophozoite stage and genomic DNA was extracted using the QIAamp DNA Blood Midi Kit (Qiagen, Germantown, MD)[71].

[2] = test system: P. falciparum Dd2 Cytb F123L; assay: SYBR Green ABS proliferation assay, NCGC00473217 selected clone G08; type: cell-based, Plasmodium falciparum; design: log AC50, mean: unit: log10(M); conditions: for AC50: Plasmodium falciparum
Procedure: as §1, §2, §3

[3] = test system: P. falciparum Dd2 (clone B2) asexual blood stage parasites; assay: P. falciparum Dd2 asexual blood stage SYBR Green-I 72 h proliferation assay (qHTS); type: cell-based, Plasmodium falciparum; conditions: Plasmodium falciparum, DD2, Dd2 parental; Hill fit, averaged from three independent replicates; top concentration 29 µM; read-out: Average AC50 (Log[M]), Dd2 (converted)
[4] = test system: P. falciparum Dd2 Cytb V259L; assay: SYBR Green ABS proliferation assay, NCGC00473217 selected clone F06; type: cell-based, Plasmodium falciparum; conditions: Plasmodium falciparum
Procedure: as §1, §2, §3

[5] = test system: P. falciparum Dd2 Cytb A122D; assay: SYBR Green ABS proliferation assay, NCGC00473217 selected clone F12; type: cell-based, Plasmodium falciparum; conditions: Plasmodium falciparum
Procedure: as §1, §2, §3

[6] = test system: P. berghei-ANKA-GFP-LucCON liver stage parasites in HepG2-A16-CD81EGFP cells; assay: P. berghei liver stage Pb-Luc assay, Method 1 (UCSD, 1536-well); type: cell-based, Plasmodium berghei; conditions: Plasmodium berghei, Method 1
[7] = test system: luciferase-expressing P. berghei liver stage parasites in HepG2 cells; assay: Inhibition of liver-stage development assay (ILSDA), Method 2 (WRAIR, 96-well); type: cell-based, Plasmodium berghei; conditions: P. berghei liver stage, Method 2, dose response
[8] = test system: Plasmodium falciparum Dd2 asexual blood stage parasites; assay: microbe, parasite or virus in culture; design: species or system Plasmodium falciparum Dd2 in human erythrocytes; single determination (one 11-point concentration-response curve); conditions: Plasmodium falciparum, DD2, Erythrocyte, 72 h; read-out: AC50
[9] = DD2, […], averaged from three independent replicates, top concentration 29 µM, read-out: Average AC50 (Log[M]), NCGC00374598 clone C11 (Cytb G131S) (converted)
[10] = DD2, […], averaged from three independent replicates, top concentration 29 µM, read-out: Average AC50 (Log[M]), NCGC00473217 clone G08 (Cytb F123L) (converted)
[11] = DD2, […], averaged from three independent replicates, top concentration 29 µM, read-out: Average AC50 (Log[M]), NCGC00473217 clone F06 (Cytb V259L) (converted)
[12] = DD2, cytochrome b mutant line, second value triple, c6, […], read-out: log AC50, mean (converted)
[13] = DD2, cytochrome b mutant line, fifth value triple, c15, […], read-out: log AC50, mean (converted)
[14] = DD2, cytochrome b mutant line, third value triple, c9, […], read-out: log AC50, mean (converted)
[15] = DD2, cytochrome b mutant line, fourth value triple, c12, […], read-out: log AC50, mean (converted)
[16] = DD2, […], averaged from three independent replicates, top concentration 29 µM, read-out: Average AC50 (Log[M]), NCGC00473217 clone F12 (Cytb A122D) (converted)

SMILES: CCCN1C(CC(C)C)=N[S+](=O)([O-])c2cc(NC(=O)c3ccc(OC)cc3)ccc21 [NCGC00531533-02]
- AC50 [1, 9]: 1.47e-06 M
- AC50 [2, 10]: 1e-06 M
- AC50 [3]: 2.52e-06 M
- AC50 [4, 11]: 1e-06 M

SMILES: CCCN1C(CC(C)C)=N[S+](=O)([O-])c2cc(NC(=O)c3ccc(F)c(Br)c3)ccc21 [NCGC00531767-01]
- AC50 [1, 12]: 2.08e-06 M
- AC50 [2, 13]: 6.32e-06 M
- AC50 [4, 14]: 1.06e-06 M
- AC50 [5, 15]: 8.61e-06 M

SMILES: CCCN1C(CC(C)C)=N[S+](=O)([O-])c2cc(NC(=O)c3ccc(F)cc3)ccc21 [NCGC00521139-01]
- AC50 [1, 9]: 3.56e-07 M
- AC50 [3]: 5.22e-07 M
- AC50 [4, 11]: 5.64e-07 M
- AC50 [5, 16]: 4.74e-07 M

SMILES: CCCN1C(C)=N[S+](=O)([O-])c2cc(NC(=O)c3ccccc3)ccc21 [NCGC00522605-01]
- AC50 [1, 9]: 2e-06 M
- AC50 [2, 10]: 3.56e-07 M
- AC50 [3]: 1e-05 M

SMILES: COc1ccc(-c2nc(C3CC3)nc3c2CCN(S(=O)(=O)c2ccccc2)CC3)cc1 [NCGC00374642-01]
- AC50 [1, 12]: 1.33e-05 M
- AC50 [2, 13]: 1.61e-05 M
- AC50 [4, 14]: 1.61e-05 M
- AC50 [5, 15]: 1.44e-05 M

SMILES: CCCN1C(CC(C)C)=N[S+](=O)([O-])c2cc(NC(=O)c3ccsc3)ccc21 [NCGC00521157-01]
- AC50 [1, 9]: 2.08e-06 M
- AC50 [3]: 2e-06 M
- AC50 [4, 11]: 1.34e-06 M
- AC50 [5, 16]: 8.93e-07 M

SMILES: CCCN1C(CC2CCC2)=N[S+](=O)([O-])c2cc(NC(=O)c3cccs3)ccc21 [NCGC00537664-01]
- AC50 [1, 12]: 4.66e-07 M
- AC50 [2, 13]: 1.78e-06 M
- AC50 [4, 14]: 1.19e-06 M
- AC50 [5, 15]: 1.36e-06 M

SMILES: CCCN1C(CC(C)C)=N[S+](=O)([O-])c2cc(NC(=O)c3ccc(SC)cc3)ccc21 [NCGC00531764-01]
- AC50 [1, 12]: 7.96e-08 M
- AC50 [2, 13]: 1e-05 M
- AC50 [4, 14]: 2.12e-06 M
- AC50 [5, 15]: 8.93e-06 M

SMILES: CCCN1C(Cc2ccccc2)=N[S+](=O)([O-])c2cc(NC(=O)c3cccs3)ccc21 [NCGC00532337-01]
- AC50 [1, 12]: 3.05e-06 M
- AC50 [2, 13]: 1e-05 M
- AC50 [4, 14]: 7.96e-07 M
- AC50 [5, 15]: 7.1e-06 M

SMILES: COc1ccc(-c2nc(C3CC3)nc3c2CCN(Cc2ccc(C#N)cc2)CC3)cc1 [NCGC00374656-01]
- AC50 [1, 12]: 7.5e-06 M
- AC50 [2, 13]: 8.09e-06 M
- AC50 [4, 14]: 1.14e-05 M
- AC50 [5, 15]: 8.41e-06 M

SMILES: CCCN1C(CC(C)C)=N[S+](=O)([O-])c2cc(NC(=O)c3cncs3)ccc21 [NCGC00521052-01]
- AC50 [1, 9]: 6.58e-07 M
- AC50 [3]: 4.84e-06 M
- AC50 [4, 11]: 5.86e-06 M
- AC50 [5, 16]: 1.72e-06 M

SMILES: CCCN1C(CC(C)C)=N[S+](=O)([O-])c2cc(NC(=O)c3cccnn3)ccc21 [NCGC00521144-01]
- AC50 [1, 9]: 2e-05 M
- AC50 [2, 10]: 1.12e-05 M
- AC50 [4, 11]: 2.82e-06 M
- AC50 [5, 16]: 2.67e-06 M

SMILES: COc1ccc(-c2nc(C(C)C)nc3c2CCN(C(=O)c2ccccc2Cl)CC3)cc1 [NCGC00479503-01]
- AC50 [1, 12]: 2.28e-06 M
- AC50 [2, 13]: 1.23e-05 M
- AC50 [4, 14]: 1.58e-05 M
- AC50 [5, 15]: 1.28e-05 M

SMILES: CCCN1C(CC(C)C)=N[S+](=O)([O-])c2cc(NC(=O)c3cn(C)cn3)ccc21 [NCGC00521148-01]
- AC50 [1, 9]: 2.67e-06 M
- AC50 [2, 10]: 7.1e-06 M
- AC50 [4, 11]: 1.17e-05 M
- AC50 [5, 16]: 1.12e-05 M

SMILES: CCCN1C(CC(C)C)=N[S+](=O)([O-])c2cc(NC(=O)COC)ccc21 [NCGC00521098-01]
- AC50 [1, 9]: 3.56e-06 M
- AC50 [3]: 8.93e-06 M
- AC50 [4, 11]: 1.68e-05 M
- AC50 [5, 16]: 1.12e-05 M

SMILES: N[S+](=O)([O-])c1cc2c(cc1Cl)NCN[S+]2(=O)[O-] [NCGC00015508-23]
- AC50 [1, 9]: 8.93e-07 M
- AC50 [3]: 7.1e-07 M
- AC50 [4, 11]: 5.64e-07 M
- AC50 [5, 16]: 1.78e-07 M

SMILES: CC(C)CC1=N[S+](=O)([O-])c2cc(NC(=O)c3cccs3)ccc2N1 [NCGC00532401-01]
- AC50 [1, 12]: 2.82e-07 M
- AC50 [2, 13]: 2.52e-09 M
- AC50 [5, 15]: 7.1e-06 M

SMILES: O=c1[nH]c(N2CCOCC2)nc2c1CCN(Cc1cc(Cl)ccc1F)CC2 [NCGC00440651-01]
- AC50 [2, 13]: 2.16e-06 M
- log AC50, mean ([2]; cytochrome b mutant line, fifth value triple, c15, […]): -5.575
- AC50 ([6]; Hill fit, 50% of maximum activity response, read-out: AC50): 2.82 µM
- AC50 ([6]; log10 of molar AC50 from Hill fit, read-out: Log AC50 (converted)): 2.82 µM
- Activity direction (Decrease / Inactive) [7]: Inactive
- AC50 [8]: 2.37 µM
